# Assay results reported in patent US20220127258A1, “AROMATIC RING OR HETEROAROMATIC RING COMPOUNDS, PREPARATION METHOD THEREFOR AND MEDICAL USE THEREOF” (The National Institutes of Pharmaceutical R&D Co., Ltd., priority 2019, published 2022).
# How the values were obtained:
# [1] = Visual inspection of solubility of test sample in extracellular fluid; format: physicochemical; conditions: 1 nM to 1 μM in extracellular fluid pH 7.4, DMSO 0.1%
# Protocol: Extracellular fluid: 140 mM NaCl, 3.5 mM KCl, 1 mM MgCl2, 2 mM CaCl2, 10 mM glucose, 10 mM HEPES, 1.25 mM NaH2PO4, pH=7.4 (adjusted by NaOH). The stock solution of the compound of Example 8 of the present invention (30.26 mM solution in DMSO) was successively diluted with 10 mL of extracellular fluid to obtain 0.3 μM, 1 μM, 3 μM, […], and 30 μM solutions. […] 10 mg of Cisapride was dissolved in 2066.29 μL of dimethyl sulfoxide (DMSO) to obtain a 10 mM stock solution. The Cisapride stock solution was successively diluted with dimethyl sulfoxide (DMSO) to obtain a total of 4 concentrations of 1 μM, 10 μM, 100 μM and 1 mM. Before the test, 10 μL of the diluent at each concentration was added to 10 mL of extracellular fluid to ensure that the DMSO concentration was 0.1%. The final working concentration of Cisapride was 1 nM, 10 nM, 100 nM and 1 μM.
# FXR = biological target: T1, FXR (Homo sapiens, UniProt Q96RI1); assay: FXR agonistic activity, luciferase assay; format: cell-based; conditions: luc2P-GAL4-HEK293 cells transfected with pBIND-FXR, 24 hours
# T1 sequence (Q96RI1 262-486 limits assumed): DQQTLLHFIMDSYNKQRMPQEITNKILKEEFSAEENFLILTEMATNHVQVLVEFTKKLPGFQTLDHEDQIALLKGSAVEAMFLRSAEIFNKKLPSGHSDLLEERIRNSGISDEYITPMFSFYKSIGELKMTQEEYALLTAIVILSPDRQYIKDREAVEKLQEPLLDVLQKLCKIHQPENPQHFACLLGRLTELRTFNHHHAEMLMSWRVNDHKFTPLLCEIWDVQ
# Protocol: The FXR agonistic activity of the compound of the present invention was evaluated using the luciferase assay.
# The experimental process comprises the follows. The luc2P-GAL4-HEK293 stably transfected cell line (the cell line was established by transfecting pGL4.35 plasmid with HEK293 cells which was then subjected to Hygromycin B screening. The cell contained 9×GAL4 UAS and firefly luciferase reporter gene. The ligand-activated LBD-GAL4 DBD fusion protein can enter the nucleus to bind to 9×GAL4 UAS and activate the transcription of the downstream luciferase reporter gene) was transferred to a 96-well plate with […] per well. pBIND-FXR (Which was constructed by inserting FXR-LBD into pFN26A-BIND hRluc-neo Flexi® vector. The plasmid was 7.5 kb in size, Amp resistant, contained FXR-LBD, and can express FXR-LBD and GAL4 DBD fusion proteins) was transfected using X-tremeGENE HP transfection reagent. The ratio of plasmid to transfection reagent was 1 μg: 2 μl. The specific amount was 100 ng of plasmid and 0.2 μl of X-tremeGENE HP transfection reagent per well. The test compounds (the highest concentration of each compound was 30 μM, 3-fold dilution, a total of 10 concentrations) were added to induce the expression of luciferase. After 24 hours, the 96-well plate containing the test cells was taken out from the incubator, and placed at room temperature. Dual-Glo® Luciferase Reagent with the volume equal to the volume of the medium in the well (80 μl/well) was added to each well and mixed well. The plate was incubated at room temperature for 20 minutes to allow the cells to be fully lysed. All the liquid in the plate was transferred to a 96-well microtiter plate, and the firefly luciferin value was measured with a multi-function plate reader (manufacturer: Bio Tek (USA); model: Synergy4). Dual-Glo® a Stop & Glo® Reagent with the volume equal to the volume of the initial medium (80 μl/well) was added to each well and mixed well. The plate was incubated at room temperature for 10 minutes, and the renilla luciferin value was measured. The measurement order of renilla fluorescence should be the same as that of firefly fluorescence. Curve fitting and EC50 calculation were conducted using GraphPad Prism 5 software by nonlinear regression method. The fitting equation is: Y=Bottom+(Top−Bottom)/(1+10^((Log EC50−X)*HillSlope)), wherein EC50 refers to the semi-effective concentration, Top refers to the maximum effect, Bottom refers to the blank effect, and HillSlope refers to the slope.
# [2] = system: cholestasis rat induced by ANIT; assay: Efficacy on the cholestasis rat model induced by 1-naphthyl isothiocyanate (ANIT); format: in vivo, SD rats; design: ALT / AST / GGT / TBA: unit not given here; conditions: for level of ALT, AST, GGT and TBA in the serum of ANIT rat (in words): 3 and 10 mg/kg/d, conclusion of Test Example 2; for ALT / AST / GGT / TBA: serum, 4 days, ANIT rat
# Protocol: Animals: SD rats, male, 7 to 8 weeks old, weight: 220 to 240 g, purchased from Beijing Vital River Laboratory Animal Technology Co., Ltd., SPF grade, Certificate No.: SCXK (Beijing) 2016-0011, license issuing administration: Beijing Municipal Commission of Science and Technology.
# Sample formulation: The compound of the present invention was added to DMSO, and dissolved completely by ultrasound. 0.5% CMC-Na was added to constant volume (DMSO: 0.5% CMC-Na=1:99), and the solution was homogenized by ultrasound for later use.
# After 3 to 5 days of acclimation, the animals were divided into 20 groups according to body weight: normal group, model group, Example 8 (3 mg/kg/d, 10 mg/kg/d) group, Example 11 (3 mg/kg/d, 10 mg/kg/d) group, Example 12 (3 mg/kg/d, 10 mg/kg/d) group, Example 14 (3 mg/kg/d, 10 mg/kg/d) group, Example 20 (3 mg/kg/d, 10 mg/kg/d) group, Example 22 (3 mg/kg/d, 10 mg/kg/d) group, Example 26 (3 mg/kg/d, 10 mg/kg/d) group, Example 28 (3 mg/kg/d, 10 mg/kg/d) group, and Example 29 (3 mg/kg/d, 10 mg/kg/d) group, with 10 rats for each group. Intragastric administration was conducted with an administration volume of 10 mL/kg, once a day, for a total of 4 days. On Day 2, ANIT (1-naphthyl isothiocyanate, Macklin, purity: 98%, item number: N814658, CAS number: 551-06-4, specification: 5 g/bottle, storage conditions: 2 to 8 degrees, batch number: C10116101) with a dose of 50 mg/kg and an administration volume of 5 mL/kg was administered intragastrically once to each animal (except for animals in the normal group) 4 hours after the administration. The animals were fasted on Day 4 morning. The animals were anesthetized by isoflurane inhalation using a small animal anesthesia machine. Blood was collected from the venous plexus behind the eyeball using a capillary glass tube (about 1 ml per animal), and then left to stand for about one hour. It was centrifuged at 3500 rpm for 10 minutes to obtain the serum. ALT, AST, GGT and TBA indexes as well as the plasma concentration of the compound were determined using an AU480 automatic biochemical analysis system (BECKMAN COULTER). Liver was collected, weighed, and cutted into pieces. Normal saline was added (liver weight: normal saline=1:2), and the mixture was homogenized and freezed. The concentration of the compound in liver was determined using an ultra performance liquid chromatograph (Shimadzu, LC 30AD) and triple quadrupole mass spectrometer (AB, TQ5500).
SMILES,"solubility, visually inspected [1]",EC50 (FXR),"level of ALT, AST, GGT and TBA in the serum of ANIT rat (in words) [2]",ALT ([2]; 3 mg/kg/d intragastric),AST ([2]; 3 mg/kg/d intragastric),GGT ([2]; 3 mg/kg/d intragastric),TBA ([2]; 3 mg/kg/d intragastric),ALT ([2]; 10 mg/kg/d intragastric),AST ([2]; 10 mg/kg/d intragastric),GGT ([2]; 10 mg/kg/d intragastric),TBA ([2]; 10 mg/kg/d intragastric)
"COc1cc(N)c(Cl)cc1C(=O)NC1CCN(CCCOc2ccc(F)cc2)CC1OC (centres unmarked) [Cisapride, reference compound]",completely dissolved without visible precipitation,–,–,–,–,–,–,–,–,–,–
O=C(O)c1ccc(-c2nnc(N3[C@@H]4CC[C@H]3C[C@@H](OCc3c(-c5c(Cl)cccc5Cl)noc3C3CC3)C4)o2)cc1F [Example 12],–,0.1 to 0.5 µM,significantly reduce,122.5 ± 89.7,314.2 ± 237.9,2.2 ± 0.8,69.0 ± 66.7,54.7 ± 27.3,139.3 ± 34.6,1.9 ± 0.5,25.4 ± 14.3
O=C(O)c1csc(-c2nnc(N3[C@@H]4CC[C@H]3C[C@@H](OCc3c(-c5c(Cl)cccc5Cl)noc3C3CC3)C4)o2)c1 [Example 20],–,0.05 to 0.1 µM,–,141.5 ± 101.4,400.2 ± 304.4,2.8 ± 1.2,119.5 ± 124.7,50.9 ± 22.4,139.8 ± 58.4,2.6 ± 0.5,16.1 ± 8.0
O=C(O)c1ccc(-c2nnc(N3[C@@H]4CC[C@H]3C[C@@H](OCc3c(-c5ccccc5OC(F)(F)F)noc3C3CC3)C4)o2)cc1F [Example 26],–,0.1 to 0.5 µM,significantly reduce,62.2 ± 27.6,187.7 ± 50.4,1.9 ± 0.8,23.2 ± 10.1,50.0 ± 11.2,162.3 ± 27.7,1.4 ± 0.7,35.3 ± 13.2
O=C(O)c1cccc(-c2nnc(N3[C@@H]4CC[C@H]3C[C@@H](OCc3c(-c5ccccc5OC(F)(F)F)noc3C3CC3)C4)o2)c1 [Example 28],–,< 0.025 µM,significantly reduce,147.1 ± 66.2,342.7 ± 153.6,2.3 ± 0.5,66.2 ± 58.4,46.6 ± 12.1,150.8 ± 28.7,1.9 ± 0.5,20.5 ± 6.0
O=C(O)c1ccc(-c2nnc(N3[C@@H]4CC[C@H]3C[C@@H](OCc3c(-c5ccccc5OC(F)(F)F)noc3C3CC3)C4)o2)c(F)c1 [Example 29],–,0.1 to 0.5 µM,significantly reduce,82.0 ± 44.5,256.0 ± 168.8,2.3 ± 1.1,51.7 ± 65.2,77.8 ± 69.5,189.4 ± 76.9,1.9 ± 0.4,26.8 ± 13.6
